The values that follow come from ChEMBL document CHEMBL3045974, “Global antifungal profile optimization of chlorophenyl derivatives against Botrytis cinerea and Colletotrichum gloeosporioides” (2009).

What all share (assay type): functional
For experiment [1], the system named is Botrytis cinerea. The experiment in a line: Antifungal activity against Botryotinia fuckeliana 2100 assessed as inhibition of radial growth at 50 ug/mL at 25 degC measured after 5 days. To be noted: Botrytis cinerea, 2100, 120 h; read-out: GI.
The subject of experiment [2] is Botrytis cinerea. The experiment in a line: Antifungal activity against Botryotinia fuckeliana 2100 assessed as inhibition of radial growth at 100 ug/mL at 25 degC measured after 5 days. To be noted: Botrytis cinerea, 2100, 120 h; read-out: GI.
Experiment [3] concerns Botrytis cinerea. The experiment in a line: Antifungal activity against Botryotinia fuckeliana 2100 assessed as inhibition of radial growth at 150 ug/mL at 25 degC measured after 5 days. To be noted: Botrytis cinerea, 2100, 120 h; read-out: GI.
The subject of experiment [4] is Colletotrichum gloeosporioides. The experiment in a line: Antifungal activity against Colletotrichum gloeosporioides 20122-CECT assessed as inhibition of radial growth at 50 ug/mL at 25 degC measured after 4 days. To be noted: 96 h, read-out: GI.
Experiment [5] relates to Colletotrichum gloeosporioides. The experiment in a line: Antifungal activity against Colletotrichum gloeosporioides 20122-CECT assessed as inhibition of radial growth at 100 ug/mL at 25 degC measured after 4 days. Conditions: 96 h, read-out: GI.
Experiment [6] has as its system Colletotrichum gloeosporioides. The experiment in a line: Antifungal activity against Colletotrichum gloeosporioides 20122-CECT assessed as inhibition of radial growth at 150 ug/mL at 25 degC measured after 4 days. Conditions: 96 h, read-out: GI.
In experiment [7] the test system is Colletotrichum gloeosporioides. The experiment in a line: Antifungal activity against Colletotrichum gloeosporioides 20122-CECT assessed as inhibition of radial growth at 50 ug/mL at 25 degC measured after 5 days. To be noted: 120 h, read-out: GI.
The test system of experiment [8] is Colletotrichum gloeosporioides. The experiment in a line: Antifungal activity against Colletotrichum gloeosporioides 20122-CECT assessed as inhibition of radial growth at 100 ug/mL at 25 degC measured after 5 days. To be noted: 120 h, read-out: GI.
For experiment [9], the system named is Colletotrichum gloeosporioides. The experiment in a line: Antifungal activity against Colletotrichum gloeosporioides 20122-CECT assessed as inhibition of radial growth at 150 ug/mL at 25 degC measured after 5 days. Conditions: 120 h, read-out: GI.
Experiment [10] relates to Botrytis cinerea. The experiment in a line: Antifungal activity against Botryotinia fuckeliana 2100 assessed as inhibition of radial growth at 150 ug/mL at 25 degC measured after 4 days. Conditions: Botrytis cinerea, 2100, 96 h; read-out: GI.

As for `O=C(Cc1ccccc1)c1ccc(Cl)cc1`, the figures for the inhibition of growth at 50 µg/mL (with Botrytis cinerea [1]; in [4]) were 31% and 9%, respectively. Moreover, the inhibition of growth at 100 µg/mL stood at 33% with Botrytis cinerea [2] and 13% in experiment [5]. The results for the inhibition of growth at 150 µg/mL (with Botrytis cinerea [3]; in experiment [6]) were 38% and 17%, respectively.
Consider `CCC(=O)c1ccc(Cl)cc1`, for which the inhibition of growth at 50 µg/mL (with Botrytis cinerea [1]; in experiment [7]) was 28% throughout. For the same compound, the inhibition of growth at 100 µg/mL in the experiment with Botrytis cinerea [2] was determined as 51%; in experiment [8], 29%. Also, the inhibition of growth at 150 µg/mL was 91% in the experiment with Botrytis cinerea [3] and 36% in experiment [9].
Take `O[C@@H](c1ccccc1)c1ccc(Cl)cc1`: the inhibition of growth at 50 µg/mL in the experiment on Botrytis cinerea [1] turned out to be 91%; in experiment [7] it was 66%. Besides, the results for the inhibition of growth at 100 µg/mL (in the experiment with Botrytis cinerea [2]; in experiment [8]) were 100% and 85%, respectively. The inhibition of growth at 150 µg/mL with Botrytis cinerea [3] was found to be 100%; in [9], 96%.
As to `O[C@H](c1ccccc1)c1ccc(Cl)cc1`, the inhibition of growth at 50 µg/mL is 99% in the experiment with Botrytis cinerea [1] and 73% in experiment [7]. Moreover, the figures for the inhibition of growth at 100 µg/mL (with Botrytis cinerea [2]; in experiment [8]) were 100% and 94%, respectively. The inhibition of growth at 150 µg/mL (in the experiment with Botrytis cinerea [3]; in [9]) was 100% in each case.
`Clc1ccc(/C=C/c2ccccc2)cc1`: the inhibition of growth at 150 µg/mL in the experiment on Botrytis cinerea [10] was 19%; in experiment [9], 0%. Also, in [7], the inhibition of growth at 50 µg/mL amounted to 0%. For the same compound, the inhibition of growth at 100 µg/mL in [8] was 0%.
For `Clc1ccc(C2OC2c2ccccc2)cc1` (stereo not drawn), the inhibition of growth at 150 µg/mL with Botrytis cinerea [3] was 28%; in experiment [9] it was 0%. In addition, the inhibition of growth at 50 µg/mL in [7] came out at 0%. The inhibition of growth at 100 µg/mL in experiment [8] was found to be 0%.
In the case of `O[C@H](c1ccccc1)[C@H](O)c1ccc(Cl)cc1`, the inhibition of growth at 50 µg/mL in the experiment on Botrytis cinerea [1] is 32%; in [7], 22%. In addition, the figures for the inhibition of growth at 100 µg/mL (in the experiment with Botrytis cinerea [2]; in [8]) were 59% and 42%, respectively. The inhibition of growth at 150 µg/mL in the experiment on Botrytis cinerea [3] is 62%; in experiment [9] it was 51%.
As for `O[C@@H](c1ccccc1)[C@@H](O)c1ccc(Cl)cc1`, the inhibition of growth at 50 µg/mL in the experiment with Botrytis cinerea [1] stood at 33%; in experiment [7], 27%. Further, the inhibition of growth at 100 µg/mL with Botrytis cinerea [2] came to 63%; in [8], 52%. In addition, the values for the inhibition of growth at 150 µg/mL (with Botrytis cinerea [3]; in [9]) were 68% and 62%, respectively.
`O[C@@H](c1ccc(Cl)cc1)C1CC1`: the inhibition of growth at 50 µg/mL in the experiment with Botrytis cinerea [1] came out at 77%; in experiment [7], 25%. Further, the inhibition of growth at 100 µg/mL was found to be 100% with Botrytis cinerea [2] and 40% in experiment [8]. Moreover, the results for the inhibition of growth at 150 µg/mL (with Botrytis cinerea [3]; in [9]) were 100% and 52%, respectively.
As for `O[C@H](c1ccc(Cl)cc1)C1CC1`, the inhibition of growth at 50 µg/mL amounted to 63% with Botrytis cinerea [1] and 20% in experiment [4]. The figures for the inhibition of growth at 100 µg/mL (with Botrytis cinerea [2]; in [5]) were 80% and 23%, respectively. In addition, the inhibition of growth at 150 µg/mL in the experiment with Botrytis cinerea [3] was 97%; in experiment [6], 27%.
`CC[C@H](O)c1ccc(Cl)cc1`: the values for the inhibition of growth at 50 µg/mL (in the experiment on Botrytis cinerea [1]; in experiment [7]) were 62% and 28%, respectively. Besides, the inhibition of growth at 100 µg/mL stood at 73% with Botrytis cinerea [2] and 29% in experiment [8]. For the same compound, the inhibition of growth at 150 µg/mL with Botrytis cinerea [3] was found to be 92%; in [9], 33%.
Consider `CC[C@@H](O)c1ccc(Cl)cc1`, for which the results for the inhibition of growth at 50 µg/mL (with Botrytis cinerea [1]; in experiment [7]) were 74% and 28%, respectively. In addition, the inhibition of growth at 100 µg/mL with Botrytis cinerea [2] was 82%; in [8] it was 39%. Further, the inhibition of growth at 150 µg/mL in the experiment with Botrytis cinerea [3] stood at 98%; in experiment [9], 59%.
On to `CC[C@@H](OC(C)=O)c1ccc(Cl)cc1`, for which the figures for the inhibition of growth at 50 µg/mL (in the experiment on Botrytis cinerea [1]; in [7]) were 12% and 0%, respectively. In addition, the results for the inhibition of growth at 100 µg/mL (with Botrytis cinerea [2]; in experiment [8]) were 40% and 0%, respectively. Moreover, the results for the inhibition of growth at 150 µg/mL (in the experiment with Botrytis cinerea [3]; in experiment [9]) were 44% and 0%, respectively.
For `CCC(=O)c1cccc(Cl)c1`, the inhibition of growth at 50 µg/mL stood at 26% in the experiment on Botrytis cinerea [1] and 22% in experiment [7]. Moreover, the inhibition of growth at 100 µg/mL was 49% in the experiment on Botrytis cinerea [2] and 28% in experiment [8]. The inhibition of growth at 150 µg/mL stood at 91% with Botrytis cinerea [3] and 42% in experiment [9].
As to `CC[C@H](O)c1cccc(Cl)c1`, the inhibition of growth at 50 µg/mL was 64% in the experiment on Botrytis cinerea [1] and 32% in experiment [7]. For the same compound, the inhibition of growth at 100 µg/mL is 71% in the experiment with Botrytis cinerea [2] and 37% in experiment [8]. Moreover, the inhibition of growth at 150 µg/mL in the experiment with Botrytis cinerea [3] was found to be 82%; in experiment [9], 49%.
On to `CC[C@@H](O)c1cccc(Cl)c1`, for which the inhibition of growth at 50 µg/mL with Botrytis cinerea [1] stood at 72%; in [7] it was 34%. Further, the results for the inhibition of growth at 100 µg/mL (in the experiment on Botrytis cinerea [2]; in [8]) were 80% and 60%, respectively. Besides, the inhibition of growth at 150 µg/mL was 86% in the experiment on Botrytis cinerea [3] and 65% in experiment [9].
For the compound `CC[C@@H](OC(C)=O)c1cccc(Cl)c1`, the values for the inhibition of growth at 50 µg/mL (in the experiment on Botrytis cinerea [1]; in experiment [7]) were 22% and 0%, respectively. Besides, the inhibition of growth at 100 µg/mL in the experiment with Botrytis cinerea [2] came to 29%; in experiment [8], 0%. The inhibition of growth at 150 µg/mL in the experiment with Botrytis cinerea [3] is 30%; in experiment [9], 0%.
For `OC(c1ccccc1)c1ccc(Cl)cc1` (racemic), the inhibition of growth at 50 µg/mL in the experiment with Botrytis cinerea [1] is 95%; in experiment [7], 63%. For the same compound, the inhibition of growth at 100 µg/mL with Botrytis cinerea [2] is 100%; in experiment [8] it was 87%. For the same compound, the inhibition of growth at 150 µg/mL in the experiment with Botrytis cinerea [3] was 100%; in experiment [9], 94%.
Consider `OC(c1ccc(Cl)cc1)C1CC1` (racemic), for which the inhibition of growth at 50 µg/mL was 74% in the experiment with Botrytis cinerea [1] and 31% in [7]. Further, the inhibition of growth at 100 µg/mL came out at 100% with Botrytis cinerea [2] and 53% in [8]. Also, the inhibition of growth at 150 µg/mL in the experiment on Botrytis cinerea [3] stood at 100%; in [9] it was 80%.
As to `CCC(O)c1ccc(Cl)cc1` (racemic), the values for the inhibition of growth at 50 µg/mL (with Botrytis cinerea [1]; in [7]) were 61% and 28%, respectively. The inhibition of growth at 100 µg/mL is 77% in the experiment on Botrytis cinerea [2] and 41% in experiment [8]. For the same compound, the inhibition of growth at 150 µg/mL in the experiment with Botrytis cinerea [3] was found to be 95%; in [9], 51%.
With `CCC(O)c1cccc(Cl)c1` (racemic), the results for the inhibition of growth at 50 µg/mL (with Botrytis cinerea [1]; in experiment [7]) were 67% and 31%, respectively. In addition, the inhibition of growth at 100 µg/mL stood at 77% in the experiment on Botrytis cinerea [2] and 60% in experiment [8]. Moreover, the inhibition of growth at 150 µg/mL worked out at 83% in the experiment with Botrytis cinerea [3] and 62% in experiment [9].
`O=C(c1ccc(Cl)cc1)C1CC1` [(4-CHLOROPHENYL)(CYCLOPROPYL)METHANONE]: the results for the inhibition of growth at 50 µg/mL (with Botrytis cinerea [1]; in [7]) were 88% and 21%, respectively. Besides, the inhibition of growth at 100 µg/mL worked out at 99% with Botrytis cinerea [2] and 63% in [8]. Further, the inhibition of growth at 150 µg/mL in the experiment on Botrytis cinerea [3] turned out to be 100%; in [9], 86%.
